Results as given in patent US11013817B2, “Nanoparticles for drug delivery to treat bone disease” (The Cleveland Clinic Foundation, priority 2016, dated 2021).

Columns and labels:
DU145 cells = test: Cytotoxicity of TXT and TXT-NPs in DU145 cells; type: cell-based; conditions: DU145, 5 day
From the text: (§1) In order to confirm the efficacy of TXT NPs, we determined IC50 of the drug and drug encapsulated in NPs in PC-3 and DU145 cells.

[1] = Solid state solubility of PTX and TXT in polymers (phase separation in cast films); type: physicochemical; design: key: +ve: Phase separation; −ve: No phase separation
From the text: For this example, polymer and drug solutions in chloroform at different % of drug to polymer were casted into films on glass slides. Following solvent evaporation of chloroform in a chemical hood overnight, the casted films were observed under a light microscope. Phase separation was clearly evident from crystallization of the drug in the polymer film whereas the films were homogeneous when there was no phase separation.

PC-3 cells = test: Cytotoxicity of TXT and TXT-NPs in PC-3 cells; type: cell-based; conditions: for IC50 / IC90: Homo sapiens
From the text: as §1

Phase Separation ([1]; drug 1% w/w, polymer inherent viscosity 0.16 dL/g, Lactide/Glycolide 50/50): − | Phase Separation ([1]; drug 1% w/w, polymer inherent viscosity 0.18 dL/g, Lactide/Glycolide 75/25): + | Phase Separation ([1]; drug 1% w/w, polymer inherent viscosity 0.26-0.54 dL/g, Lactide/Glycolide 50/50, Ester Terminated): + | Phase Separation ([1]; drug 1% w/w, polymer inherent viscosity 0.39 dL/g, Lactide/Glycolide 50/50): − | Phase Separation ([1]; drug 1% w/w, polymer inherent viscosity 0.55-0.75 dL/g, Lactide/Glycolide 50/50, Carbohydrate end Group): + | Phase Separation ([1]; drug 1% w/w, polymer inherent viscosity 0.63 dL/g, Lactide/Glycolide 85/15): + | Phase Separation ([1]; drug 1% w/w, polymer inherent viscosity 0.64 dL/g, Lactide/Glycolide 65/35): + | Phase Separation ([1]; drug 1% w/w, polymer inherent viscosity 0.64 dL/g, Lactide/Glycolide 75/25): + | Phase Separation ([1]; drug 1% w/w, polymer inherent viscosity 0.67 dL/g, Lactide/Glycolide 65/35): − | Phase Separation ([1]; drug 1% w/w, polymer inherent viscosity 0.69 dL/g, Lactide/Glycolide 50/50 (first of two such lines, r12)): − | Phase Separation ([1]; drug 1% w/w, polymer inherent viscosity 0.69 dL/g, Lactide/Glycolide 50/50 (second of two such lines, r13)): + | Phase Separation ([1]; drug 1% w/w, polymer inherent viscosity 0.76-0.94 dL/g, Lactide/Glycolide 50/50): + | Phase Separation ([1]; drug 1% w/w, polymer inherent viscosity 0.87 dL/g, Lactide/Glycolide 50/50): + | Phase Separation ([1]; drug 1% w/w, polymer inherent viscosity 0.95-1.20 dL/g, Lactide/Glycolide 50/50): − | Phase Separation ([1]; drug 1% w/w, polymer inherent viscosity 1.15 dL/g, Lactide/Glycolide 50/50): + | Phase Separation ([1]; drug 1% w/w, polymer inherent viscosity 1.24 dL/g, Lactide/Glycolide 50/50): + | Phase Separation ([1]; drug 5% w/w, polymer inherent viscosity 0.16 dL/g, Lactide/Glycolide 50/50): − | Phase Separation ([1]; drug 5% w/w, polymer inherent viscosity 0.18 dL/g, Lactide/Glycolide 75/25): + | Phase Separation ([1]; drug 5% w/w, polymer inherent viscosity 0.26-0.54 dL/g, Lactide/Glycolide 50/50, Ester Terminated): + | Phase Separation ([1]; drug 5% w/w, polymer inherent viscosity 0.39 dL/g, Lactide/Glycolide 50/50): − | Phase Separation ([1]; drug 5% w/w, polymer inherent viscosity 0.55-0.75 dL/g, Lactide/Glycolide 50/50, Carbohydrate end Group): + | Phase Separation ([1]; drug 5% w/w, polymer inherent viscosity 0.63 dL/g, Lactide/Glycolide 85/15): + | Phase Separation ([1]; drug 5% w/w, polymer inherent viscosity 0.64 dL/g, Lactide/Glycolide 65/35): + | Phase Separation ([1]; drug 5% w/w, polymer inherent viscosity 0.64 dL/g, Lactide/Glycolide 75/25): + | Phase Separation ([1]; drug 5% w/w, polymer inherent viscosity 0.67 dL/g, Lactide/Glycolide 65/35): + | Phase Separation ([1]; drug 5% w/w, polymer inherent viscosity 0.69 dL/g, Lactide/Glycolide 50/50 (first of two such lines, r12)): − | Phase Separation ([1]; drug 5% w/w, polymer inherent viscosity 0.69 dL/g, Lactide/Glycolide 50/50 (second of two such lines, r13)): + | Phase Separation ([1]; drug 5% w/w, polymer inherent viscosity 0.76-0.94 dL/g, Lactide/Glycolide 50/50): + | Phase Separation ([1]; drug 5% w/w, polymer inherent viscosity 0.87 dL/g, Lactide/Glycolide 50/50): + | Phase Separation ([1]; drug 5% w/w, polymer inherent viscosity 0.95-1.20 dL/g, Lactide/Glycolide 50/50): − | Phase Separation ([1]; drug 5% w/w, polymer inherent viscosity 1.15 dL/g, Lactide/Glycolide 50/50): + | Phase Separation ([1]; drug 5% w/w, polymer inherent viscosity 1.24 dL/g, Lactide/Glycolide 50/50): + | Phase Separation ([1]; drug 10% w/w, polymer inherent viscosity 0.16 dL/g, Lactide/Glycolide 50/50): − | Phase Separation ([1]; drug 10% w/w, polymer inherent viscosity 0.18 dL/g, Lactide/Glycolide 75/25): + | Phase Separation ([1]; drug 10% w/w, polymer inherent viscosity 0.26-0.54 dL/g, Lactide/Glycolide 50/50, Ester Terminated): + | Phase Separation ([1]; drug 10% w/w, polymer inherent viscosity 0.39 dL/g, Lactide/Glycolide 50/50): − | Phase Separation ([1]; drug 10% w/w, polymer inherent viscosity 0.55-0.75 dL/g, Lactide/Glycolide 50/50, Carbohydrate end Group): + | Phase Separation ([1]; drug 10% w/w, polymer inherent viscosity 0.63 dL/g, Lactide/Glycolide 85/15): + | Phase Separation ([1]; drug 10% w/w, polymer inherent viscosity 0.64 dL/g, Lactide/Glycolide 65/35): + | Phase Separation ([1]; drug 10% w/w, polymer inherent viscosity 0.64 dL/g, Lactide/Glycolide 75/25): + | Phase Separation ([1]; drug 10% w/w, polymer inherent viscosity 0.67 dL/g, Lactide/Glycolide 65/35): + | Phase Separation ([1]; drug 10% w/w, polymer inherent viscosity 0.69 dL/g, Lactide/Glycolide 50/50 (first of two such lines, r12)): − | Phase Separation ([1]; drug 10% w/w, polymer inherent viscosity 0.69 dL/g, Lactide/Glycolide 50/50 (second of two such lines, r13)): + | Phase Separation ([1]; drug 10% w/w, polymer inherent viscosity 0.76-0.94 dL/g, Lactide/Glycolide 50/50): + | Phase Separation ([1]; drug 10% w/w, polymer inherent viscosity 0.87 dL/g, Lactide/Glycolide 50/50): + | Phase Separation ([1]; drug 10% w/w, polymer inherent viscosity 0.95-1.20 dL/g, Lactide/Glycolide 50/50): − | Phase Separation ([1]; drug 10% w/w, polymer inherent viscosity 1.15 dL/g, Lactide/Glycolide 50/50): + | Phase Separation ([1]; drug 10% w/w, polymer inherent viscosity 1.24 dL/g, Lactide/Glycolide 50/50): + | Phase Separation ([1]; drug 15% w/w, polymer inherent viscosity 0.16 dL/g, Lactide/Glycolide 50/50): − | Phase Separation ([1]; drug 15% w/w, polymer inherent viscosity 0.18 dL/g, Lactide/Glycolide 75/25): + | Phase Separation ([1]; drug 15% w/w, polymer inherent viscosity 0.26-0.54 dL/g, Lactide/Glycolide 50/50, Ester Terminated): + | Phase Separation ([1]; drug 15% w/w, polymer inherent viscosity 0.39 dL/g, Lactide/Glycolide 50/50): − | Phase Separation ([1]; drug 15% w/w, polymer inherent viscosity 0.55-0.75 dL/g, Lactide/Glycolide 50/50, Carbohydrate end Group): + | Phase Separation ([1]; drug 15% w/w, polymer inherent viscosity 0.63 dL/g, Lactide/Glycolide 85/15): + | Phase Separation ([1]; drug 15% w/w, polymer inherent viscosity 0.64 dL/g, Lactide/Glycolide 65/35): + | Phase Separation ([1]; drug 15% w/w, polymer inherent viscosity 0.64 dL/g, Lactide/Glycolide 75/25): + | Phase Separation ([1]; drug 15% w/w, polymer inherent viscosity 0.67 dL/g, Lactide/Glycolide 65/35): + | Phase Separation ([1]; drug 15% w/w, polymer inherent viscosity 0.69 dL/g, Lactide/Glycolide 50/50 (first of two such lines, r12)): − | Phase Separation ([1]; drug 15% w/w, polymer inherent viscosity 0.69 dL/g, Lactide/Glycolide 50/50 (second of two such lines, r13)): + | Phase Separation ([1]; drug 15% w/w, polymer inherent viscosity 0.76-0.94 dL/g, Lactide/Glycolide 50/50): + | Phase Separation ([1]; drug 15% w/w, polymer inherent viscosity 0.87 dL/g, Lactide/Glycolide 50/50): + | Phase Separation ([1]; drug 15% w/w, polymer inherent viscosity 0.95-1.20 dL/g, Lactide/Glycolide 50/50): − | Phase Separation ([1]; drug 15% w/w, polymer inherent viscosity 1.15 dL/g, Lactide/Glycolide 50/50): + | Phase Separation ([1]; drug 15% w/w, polymer inherent viscosity 1.24 dL/g, Lactide/Glycolide 50/50): + | Phase Separation ([1]; drug 20% w/w, polymer inherent viscosity 0.16 dL/g, Lactide/Glycolide 50/50): − | Phase Separation ([1]; drug 20% w/w, polymer inherent viscosity 0.18 dL/g, Lactide/Glycolide 75/25): + | Phase Separation ([1]; drug 20% w/w, polymer inherent viscosity 0.26-0.54 dL/g, Lactide/Glycolide 50/50, Ester Terminated): + | Phase Separation ([1]; drug 20% w/w, polymer inherent viscosity 0.39 dL/g, Lactide/Glycolide 50/50): − | Phase Separation ([1]; drug 20% w/w, polymer inherent viscosity 0.55-0.75 dL/g, Lactide/Glycolide 50/50, Carbohydrate end Group): + | Phase Separation ([1]; drug 20% w/w, polymer inherent viscosity 0.63 dL/g, Lactide/Glycolide 85/15): + | Phase Separation ([1]; drug 20% w/w, polymer inherent viscosity 0.64 dL/g, Lactide/Glycolide 65/35): + | Phase Separation ([1]; drug 20% w/w, polymer inherent viscosity 0.64 dL/g, Lactide/Glycolide 75/25): + | Phase Separation ([1]; drug 20% w/w, polymer inherent viscosity 0.67 dL/g, Lactide/Glycolide 65/35): + | Phase Separation ([1]; drug 20% w/w, polymer inherent viscosity 0.69 dL/g, Lactide/Glycolide 50/50 (first of two such lines, r12)): + | Phase Separation ([1]; drug 20% w/w, polymer inherent viscosity 0.69 dL/g, Lactide/Glycolide 50/50 (second of two such lines, r13)): + | Phase Separation ([1]; drug 20% w/w, polymer inherent viscosity 0.76-0.94 dL/g, Lactide/Glycolide 50/50): + | Phase Separation ([1]; drug 20% w/w, polymer inherent viscosity 0.87 dL/g, Lactide/Glycolide 50/50): + | Phase Separation ([1]; drug 20% w/w, polymer inherent viscosity 0.95-1.20 dL/g, Lactide/Glycolide 50/50): + | Phase Separation ([1]; drug 20% w/w, polymer inherent viscosity 1.15 dL/g, Lactide/Glycolide 50/50): + | Phase Separation ([1]; drug 20% w/w, polymer inherent viscosity 1.24 dL/g, Lactide/Glycolide 50/50): +
SMILES: CC(=O)O[C@@]12CO[C@@H]1C[C@H](O)[C@@]1(C)C(=O)[C@H](O)C3=C(C)[C@@H](OC(=O)[C@H](O)[C@@H](NC(=O)OC(C)(C)C)c4ccccc4)C[C@@](O)([C@@H](OC(=O)c4ccccc4)[C@H]21)C3(C)C [Docetaxel, (2R,3S)-N-carboxy-3-phenylisoserine, N-tert-butyl ester, 13-ester with 5b-20-epoxy-12a,4,7b,10b,13a-hexahydroxytax-11-en-9-one 4-acetate 2-benzoate, trihydrate]
IC75 (DU145 cells): 1.9 ± 0.03 ng/mL | IC50 (DU145 cells; Homo sapiens, DU-145, 120 h): 1.5 ± 0.04 ng/mL | IC90 (DU145 cells; Homo sapiens, DU-145, 120 h): 2.4 ± 0.02 ng/mL | IC50 (PC-3 cells; PC-3, 72 h, PC3, 3 day): 2.5 ± 0.05 ng/mL | IC90 (PC-3 cells; PC-3, 72 h, PC3, 3 day): 6.31 ± 0.17 ng/mL | IC50 (PC-3 cells; PC-3, 120 h, PC3, 5 day): 1.6 ± 0.01 ng/mL | IC90 (PC-3 cells; PC-3, 120 h, PC3, 5 day): 5 ± 0.07 ng/mL | IC50 (PC-3 cells; PC-3, 168 h, PC3, 7 day): 1.6 ± 0.01 ng/mL | IC90 (PC-3 cells; PC-3, 168 h, PC3, 7 day): 4.2 ± 0.08 ng/mL | IC75 (PC-3 cells; PC3, 3 day): 3.8 ± 0.03 ng/mL | IC75 (PC-3 cells; PC3, 5 day): 2.5 ± 0.02 ng/mL | IC75 (PC-3 cells; PC3, 7 day): 2.5 ± 0.01 ng/mL
